Paper PMC10127945 (Nature chemical biology, 2022)

Columns and labels:
SARS-CoV-2 = assay type: cell-based, SARS-CoV-2 (USA-WA1/2020)
[1] = target: SARS-CoV-2 envelope (E) protein viroporin ion channel (Severe acute respiratory syndrome coronavirus 2, UniProt P0DTC4); assay type: cell-based
[2] = target: ACE2/SARS-CoV-2 Spike protein binding (Homo sapiens, UniProt Q9BYF1); assay type: cell-based
[3] = Stability in aqueous solution; assay type: physicochemical; details: neutral pH
TMPRSS2 = TMPRSS2 (Homo sapiens, UniProt O15393); assay: Biotin-switch assay for SNO-TMPRSS2; assay type: cell-based; details: 100 μM SNOC, 20 minutes, HeLa-ACE2 cells
ACE2 = ACE2 (Homo sapiens, UniProt Q9BYF1); assay: Biotin-switch assay for SNO-ACE2 in HeLa-ACE2 cells; assay type: cell-based; details: 100 μM SNOC
SARS-CoV-2 Spike protein = SARS-CoV-2 Spike protein (Severe acute respiratory syndrome coronavirus 2, UniProt P0DTC2); assay type: biochemical

ACE2, sequence (Q9BYF1 18-805): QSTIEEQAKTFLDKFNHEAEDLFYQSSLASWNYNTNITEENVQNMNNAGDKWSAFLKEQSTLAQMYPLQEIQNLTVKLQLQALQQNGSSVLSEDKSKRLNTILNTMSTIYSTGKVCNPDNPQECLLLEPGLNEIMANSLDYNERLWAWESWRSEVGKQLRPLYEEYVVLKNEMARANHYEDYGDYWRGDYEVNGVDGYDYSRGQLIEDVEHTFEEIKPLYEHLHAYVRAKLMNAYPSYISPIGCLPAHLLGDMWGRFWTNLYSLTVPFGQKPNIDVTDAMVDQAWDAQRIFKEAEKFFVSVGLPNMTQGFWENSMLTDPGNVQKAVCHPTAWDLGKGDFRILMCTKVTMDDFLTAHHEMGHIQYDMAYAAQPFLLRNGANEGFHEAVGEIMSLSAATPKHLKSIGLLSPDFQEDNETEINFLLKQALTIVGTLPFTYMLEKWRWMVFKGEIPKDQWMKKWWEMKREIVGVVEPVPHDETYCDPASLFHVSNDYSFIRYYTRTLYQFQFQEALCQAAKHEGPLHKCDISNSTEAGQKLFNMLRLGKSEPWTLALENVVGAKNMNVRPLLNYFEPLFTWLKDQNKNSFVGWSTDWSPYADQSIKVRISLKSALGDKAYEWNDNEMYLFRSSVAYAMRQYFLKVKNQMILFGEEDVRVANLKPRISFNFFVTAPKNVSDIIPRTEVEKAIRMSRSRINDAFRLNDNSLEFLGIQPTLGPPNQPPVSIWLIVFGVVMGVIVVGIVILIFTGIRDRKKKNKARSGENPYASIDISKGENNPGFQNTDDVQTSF
TMPRSS2, sequence (O15393 whole entry): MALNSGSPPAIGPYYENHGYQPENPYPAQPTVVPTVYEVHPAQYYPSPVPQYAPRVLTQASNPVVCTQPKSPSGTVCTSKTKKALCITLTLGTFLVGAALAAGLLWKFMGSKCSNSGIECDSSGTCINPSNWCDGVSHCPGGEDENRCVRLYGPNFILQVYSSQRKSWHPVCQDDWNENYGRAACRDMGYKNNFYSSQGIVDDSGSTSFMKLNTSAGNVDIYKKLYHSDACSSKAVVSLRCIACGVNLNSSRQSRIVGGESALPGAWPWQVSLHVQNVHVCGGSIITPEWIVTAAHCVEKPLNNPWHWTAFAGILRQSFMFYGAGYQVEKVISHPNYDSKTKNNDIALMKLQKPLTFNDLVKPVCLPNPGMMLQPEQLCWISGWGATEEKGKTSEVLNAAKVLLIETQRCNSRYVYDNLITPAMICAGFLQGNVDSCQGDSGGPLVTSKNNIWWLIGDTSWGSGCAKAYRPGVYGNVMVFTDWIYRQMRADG
SARS-CoV-2 envelope (E) protein viroporin ion channel, sequence (P0DTC4 whole entry): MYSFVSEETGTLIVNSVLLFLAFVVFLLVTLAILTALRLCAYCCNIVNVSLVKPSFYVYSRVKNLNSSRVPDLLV
ACE2/SARS-CoV-2 Spike protein binding, sequence (Q9BYF1 18-805 limits assumed): as the sequence (Q9BYF1 18-805) above

Row | Compound | efficacy against live SARS-CoV-2 infection (SARS-CoV-2) | inhibition of E protein voltage-dependent K+ current [1] | binding of purified S protein to HeLa-ACE2 cells [2] | time for NO to dissipate [3] [min] | S-nitrosylation of TMPRSS2 (TMPRSS2) | stability (persistence) of SNO-ACE2 formation (ACE2) | S-nitrosylation of ACE2 (ACE2; 20 minutes) | S-nitrosylation of Spike protein (SARS-CoV-2 Spike protein)
1 | CC12CC3CC(C)(C1)CC(N)(C3)C2 [memantine] | no efficacy | inhibited |  |  |  |  |  | 
2 | NC12CC3CC(CC(C3)C1)C2 [amantadine] | no efficacy |  |  |  |  |  |  | 
3 | S-nitrosocysteine [SNOC] |  |  | significantly decreased binding | < 5 | could be S-nitrosylated | at least 12 h | could be S-nitrosylated | Lack of S-nitrosylation
